From patent US9464064B2, “HCV helicase inhibitors and methods of use thereof” (University of Kansas, priority 2011, dated 2016)
Like-named read-outs stand apart in the source and are kept apart here.

What was measured:
[1] = tested on: Huh-7.5 cells; assay: Cell viability assay ([…]-GLO); type: cell-based, human; details: for Cell viability (% viable): 10 μM compound, triplicate, average ± SD
Protocol: To assess compound toxicity toward Huh-7.5 cells, cells were plated and treated as above and cell viability was assessed using the […]-GLO luminescent cell viability kit (PROMEGA) following the manufacturer's instructions. Briefly, at the end of a 72 hour incubation period, the medium was aspirated and the cells were washed with 1×PBS, then an equal volume of growth medium and […]-GLO reagent was added and the lysis was initiated by mixing on an orbital shaker. The plate was incubated at 23° C. for 30 minutes and the luciferase activity was measured for 1 second using the FLUOSTAR Omega microplate reader (BMG Labtech).

[2] = target: T1, NS3h_2a(JFH1) (Hepatitis C virus genotype 2a, UniProt Q99IB8); assay: MBHA, DNA substrate, genotype 2a helicase; type: biochemical, hepatitis C virus genotype 2a(JFH1); details: genotype 2a (JFH1)
T1 construct: truncated C-terminally His-tagged NS3 proteins lacking the N-terminal protease, called NS3h; His-tag (C); made in house
Protocol: All oligonucleotides were purchased from Integrated DNA Technologies (IDT, Coralville, Iowa). Primuline derivatives were synthesized and purified as described herein. Three different NS3 proteins were used in this study. Two were truncated C-terminally His-tagged NS3 proteins lacking the N-terminal protease, called NS3h, the third was a full-length NS3 with the portion of NS4A needed for protease activation fused to its N-terminus, called scNS4A-NS3 (Howe, et al. (1999) Protein Sci. 8:1332-41), and the fourth was a 23 kDa scNS4A-NS3 protease fragment lacking the helicase domains, called scNS4A-NS3p (Protein One, Rockville, Md.). NS3h was expressed from two different HCV strains. NS3h_1b(con1) was from the con1 strain of genotype 1b (GENBANK accession AB114136), and NS3h_2a(JFH1) was from the JFH1 strain of HCV genotype 2a (GENBANK accession AJ238799). […] His-tagged recombinant NS3h_1b(con1), NS3h_2a(JFH1), and scNS4A-NS3 (also from genotype 1b(con1)) were expressed, and purified as previously described (Frick, et al. (2010) supra; Lam, et al. (2003) J. Virol. 77:3950-3961). The scNS4A-NS3p (genotype 1b) was from Protein One. A plasmid expressing NS3h from dengue virus strain 2 (NS3h_DV2)(GENBANK accession 2BMF) is known in the art (Xu, et al. (2005) J. Virol. 79:10278-10288), and used to express and purify NS3h_DV2 (Belon, et al. (2010) supra)
Compounds that specifically target less conserved regions of a HCV protein are often not potent inhibitors of the same protein derived from other genotypes, and they might be susceptible to rapid evolution of related viruses. As described herein, primuline derivatives can inhibit HCV helicase isolated from the genotype 1b(con1) strain. Therefore to further analyze specificity, the subset of primuline analogs was tested on the helicase isolated from the genotype 2a(JFH1) strain. The two recombinant proteins differ at 83 of their 480 amino acids. The JHF1 strain is also of interest because it serves as the backbone for HCV strains capable of replicating in cell culture (Wakita, et al. (2005) Nat. Med. 11:791-796). The molecular beacon-based helicase assay (MBHA) (Belon & Frick (2008) supra) was used to measure the ability of each compound to inhibit DNA unwinding catalyzed by NS3h isolated from genotype 2a(JFH1) (NS3h_2a(JFH1)). […] Selected compounds were also tested for the ability to inhibit helicase reactions catalyzed by full-length NS3 and a single chain NS4A-NS3 protein (scNS4A-NS3) described below and used for protease assays.

[3] = target: T2, E. coli SSB-Cy5-dT15 complex (Escherichia coli, UniProt P0AGE0); assay: Escherichia coli SSB Cy5-dT15 binding assay (fluorescence polarization); details: for inhibition at 100 µM: read-out: SSB % Displaced @ 100 μM
T2 construct: purchased Promega
Protocol: The Escherichia coli SSB assay was performed in a total volume of 20.2 μl in 384-well, flat-bottom, low volume, black microplates (Greiner Bio-One). First, 20 μl of a assay solution (5 nM Cy5-[…]-3′ (Cy5-dT15, SEQ ID NO:5), 20 nM E. coli SSB (Promega), 25 mM MOPS, pH 7.5, 1.25 mM MgCl2, 0.0025 mg/ml BSA, 0.005% (v/v) TWEEN 20 and 0.025 mM DTT) was dispensed in each well, then 0.2 μl of dimethylsulfoxide (DMSO) or compound dissolved in DMSO was added by pin transfer, such that the final concentration of DMSO was 1% (v/v) in each assay.
For IC50 determination, assays were performed with 60 μl total volume in black flat bottomed 384-well microplates (Corning). First, 3.0 μl of DMSO or compound dissolved in DMSO was added, such that the final concentration of DMSO was 5% (v/v) in each assay. Then 57 μl of a assay solution (5 nM Cy5-dT15, 20 nM SSB, 25 mM MOPS, pH 7.5, 1.25 mM MgCl2, 0.0025 mg/ml BSA, 0.005% (v/v) TWEEN 20 and 0.025 mM DTT) was dispensed in each well. Polarization was monitored with a TECAN Infinite M1000 PRO multi-mode microplate reader by exciting at 635 nm (5 nm bandwidth) and measuring total fluorescence intensity, parallel and perpendicular polarized light at 667 nm (20 nm bandwidth).

[4] = tested on: MBHA DNA substrate; assay: Modified FID assay, SYBR Green I; type: binding; details: for DNA binding (%): SYBR Green I-FID, average (±SD) percent bound at 100 μM
Protocol: A modified FID assay, in which ethidium bromide was replaced with SYBR Green I (Invitrogen), was used to estimate a compounds affinity for the MBHA substrate. Reactions were performed as described above except that the DNA substrate was present at 0.32 μM, ethidium bromide was absent, and SYBER Green was present at (0.68 μM). Data were normalized as described above and fit to concentration-response equation using GraphPad Prism software. Titrations with each compound were performed in triplicate, and EC50 values from three independent titrations are reported ±standard deviations.

[5] = read-out: Target Potency MBHA (IC50 avg., μM) 2a (JFH1) (converted)
[6] = SYBR Green, read-out: FID (SG) EC50 (converted)
[7] = disruption of Cy5-dT15-SSB complex, read-out: Cy5-dT15-SSB Binding IC50
[8] = Target Potency MBHA (IC50 avg., μM) 2a (JFH1)

T2 sequence (P0AGE0 2-178, one chain of several): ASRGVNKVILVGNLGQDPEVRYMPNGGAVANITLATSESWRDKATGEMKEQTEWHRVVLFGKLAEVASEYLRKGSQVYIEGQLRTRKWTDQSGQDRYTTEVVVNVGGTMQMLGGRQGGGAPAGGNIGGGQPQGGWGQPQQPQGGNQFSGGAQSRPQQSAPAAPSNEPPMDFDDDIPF
T1 sequence (Q99IB8 1196-1661): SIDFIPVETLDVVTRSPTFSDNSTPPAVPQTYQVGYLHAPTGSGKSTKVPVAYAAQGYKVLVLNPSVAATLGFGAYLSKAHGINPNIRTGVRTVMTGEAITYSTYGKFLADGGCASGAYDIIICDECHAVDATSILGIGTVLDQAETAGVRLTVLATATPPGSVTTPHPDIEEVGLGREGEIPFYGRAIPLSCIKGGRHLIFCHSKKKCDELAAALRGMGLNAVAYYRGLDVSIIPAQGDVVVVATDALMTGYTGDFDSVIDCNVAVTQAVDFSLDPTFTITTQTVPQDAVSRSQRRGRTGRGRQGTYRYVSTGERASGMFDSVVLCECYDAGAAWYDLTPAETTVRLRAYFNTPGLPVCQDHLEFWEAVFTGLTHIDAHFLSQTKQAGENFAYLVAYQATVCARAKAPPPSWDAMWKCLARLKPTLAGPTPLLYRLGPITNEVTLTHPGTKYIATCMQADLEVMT

Row | Structure (SMILES) | Cell Viability (% @ 10 μM) [1] | IC50 [2, 5] | inhibition at 100 µM [3] | EC50 ([3]; read-out: SSB EC50) | DNA binding (%) [4] | FID (SG) % Displaced @ 100 μM ([4]; SYBR Green) | EC50 [4, 6] | Cell viability (% viable) [1] | IC50 [3, 7] | EC50 [3] | IC50 [3] | IC50 [2, 8] | EC50 ([4]; FID, mean ± SD, read-out: DNA Binding (SYBR Green I) EC50)
1 | Cc1ccc2nc(-c3ccc4nc(-c5ccc(NC(=O)c6ccc7ncoc7c6)cc5)sc4c3)sc2c1S(=O)(=O)O | 114 ± 13% | 6.4 µM |  |  |  |  |  |  |  |  |  |  | 
2 | Cc1ccc2nc(-c3ccc4nc(-c5ccc(NS(=O)(=O)c6ccc(C(F)(F)F)cc6)cc5)sc4c3)sc2c1S(=O)(=O)O | 101 ± 6% | 35 µM |  |  |  |  |  |  |  |  |  |  | 
3 | Cc1ccc2nc(-c3ccc(NC(=O)c4ccc(C(F)(F)F)cc4)cc3)sc2c1S(=O)(=O)O | 102 ± 9% | > 100 µM |  |  |  |  |  |  |  |  |  |  | 
4 | Cc1ccc2nc(-c3ccc(NC(=O)c4ccc(N)cc4)cc3)sc2c1S(=O)(=O)O | 103 ± 6% | 64 µM |  |  |  |  |  |  |  |  |  |  | 
5 | Cc1ccc2nc(-c3ccc(NC(=O)c4ccc(NS(=O)(=O)c5ccccc5)cc4)cc3)sc2c1S(=O)(=O)O | 119 ± 11% | > 100 µM | 61% | > 100 µM |  |  |  |  |  |  |  |  | 
6 | Cc1ccc2nc(-c3ccc(NC(=S)Nc4ccccc4Br)cc3)sc2c1 | 39 ± 10% | > 100 µM |  |  |  |  |  |  |  |  |  |  | 
7 | Cc1ccc2nc(-c3ccc4nc(NC(=O)c5ccc6ncoc6c5)sc4c3)sc2c1 | 28 ± 5% | 75 ± 32.6 µM |  |  |  |  |  |  |  |  |  |  | 
8 | Cc1ccc2nc(-c3ccc4nc(-c5ccc(NC(=O)c6ccccc6)cc5)sc4c3)sc2c1S(=O)(=O)O [Compound 5, 2′-(4-benzamidophenyl)-6-methyl-[2,6′-bibenzo[d]thiazole]-7-sulfonic acid] | 88 ± 2% | 4.6 ± 1.4 µM | 91% | 4 ± 1 µM | 31 ± 13% | 31 ± 13% | > 100 µM | 88 ± 2% | 4 ± 1 µM |  |  |  | 
9 | COc1ccc(C(=O)Nc2ccc(-c3nc4ccc(-c5nc6ccc(C)c(S(=O)(=O)O)c6s5)cc4s3)cc2)cc1 [Compound 8, 2′-(4-(4-methoxybenzamido)phenyl)-6-methyl-[2,6′-bibenzo[d]thiazole]-7-sulfonic acid] | 85 ± 5% |  | 92% |  | 35 ± 10% | 35 ± 10% | > 100 µM | 85 ± 5% |  | 2 ± 1 µM | 2 ± 1 µM | 5.4 ± 1.4 µM | 
10 | COC(=O)c1ccc(C(=O)Nc2ccc(-c3nc4ccc(-c5nc6ccc(C)c(S(=O)(=O)O)c6s5)cc4s3)cc2)cc1 [Compound 9, 2′-(4-(4-(methoxycarbonyl)benzamido)phenyl)-6-methyl-[2,6′-bibenzo[d]thiazole]-7-sulfonic acid] | 101 ± 8% | 2.4 ± 0.6 µM | 91% | 2 ± 0.5 µM | 28 ± 10% | 28 ± 10% | > 100 µM | 101 ± 8% | 1 µM |  |  |  | 
11 | Cc1ccc2nc(-c3ccc4nc(-c5ccc(NC(=O)c6ccc(Cl)cc6)cc5)sc4c3)sc2c1S(=O)(=O)O [Compound 10, 2′-(4-(4-chlorobenzamido)phenyl)-6-methyl-[2,6′-bibenzo[d]thiazole]-7-sulfonic acid] | 84 ± 6% |  | 80% |  | 67 ± 17% | 67 ± 17% | 31 ± 15 µM | 84 ± 6% |  | 46 ± 52 µM | 46 ± 52 µM | 2.3 ± 0.5 µM | 
12 | Cc1ccc(C(=O)Nc2ccc(-c3nc4ccc(-c5nc6ccc(C)c(S(=O)(=O)O)c6s5)cc4s3)cc2)cc1 [Compound 11, 6-methyl-2′-(4-(4-methylbenzamido)phenyl)-[2,6′-bibenzo[d]thiazole]-7-sulfonic acid] | 87 ± 4% | 2.5 ± 0.5 µM | 96% | 5 ± 2 µM | 50 ± 15% | 50 ± 15% | > 100 µM | 87 ± 4% | 5 ± 2 µM |  |  |  | > 100 µM
13 | Cc1ccc2nc(-c3ccc4nc(-c5ccc(NC(=O)c6ccc(N(C)C)cc6)cc5)sc4c3)sc2c1S(=O)(=O)O [Compound 14, 2′-(4-(4-(dimethylamino)benzamido)phenyl)-6-methyl-[2,6′-bibenzo[d]thiazole]-7-sulfonic acid] | 94 ± 5% | 6.4 ± 1.2 µM | 98% | 4 ± 1 µM | 44 ± 4% | 44 ± 4% | > 100 µM | 94 ± 5% | 4 ± 1 µM |  |  |  | 
